# Laboratory results: US20200299783A1 (Board of Regents, The University of Texas System, priority 2019, published 2020)
# Entries after “also recorded” stand apart in the source; their conditions may differ.
# What was measured:
# [1] = tested on: ibrutinib-resistant MCL cell lines Maver-1 and Z-138; experiment: ROS levels by flow cytometry, ibrutinib-resistant MCL cell lines; type: cell-based, human
# Description: (§1) Mitochondria membrane potential, mitochondria mass, ROS, and apoptosis analysis. MCL cells were seeded and cultured overnight before treatment to reach log phase. Respective cell lines were plated at 2×10^6 cells/well in 6-well plates in phenol-red and pyruvate-free DMEM assay medium containing 5 mM glucose (Sigma), 2 mM GlutaMAX (Gibco, ThermoFisher Scientific), and 5% dialyzed FCS (Gibco). Vehicle, IACS-0107059 (20 nM), or (1-5 μM) BPTES was added and replenished every day until the indicated time points. ROS and mitochondria membrane potential were evaluated 24 hours after treatment. […] TMRE dye fluorescence retained in the cells was detected by flow cytometry with excitation and emission of 548/574 nm. Data were analyzed with NovoExpress (ACEA Biosciences, San Diego, Calif., USA) or FlowJo10 (Tree Star, Ashland, Oreg., USA). To measure ROS levels, treated cells were harvested, stained with 0.5 mM CM-H2DCF-DA (C6827, Molecular Probes, Invitrogen) in PBS for 30 min at 37° C., washed twice with PBS, and analyzed in a flow cytometer (FACS Caliber, BD Biosciences) by recording the green fluorescence of oxidized DCF. The mean fluorescence of 10,000 analyzed cells (corrected for auto fluorescence) was taken as a readout for the intracellular ROS load.
# [2] = tested on: ibrutinib-resistant Z-138 MCL cells; experiment: Apoptosis assay (Annexin-V/PI), Z-138; type: cell-based, human; conditions: 72 hours, 20 nM IACS-010759 and/or 5 μM BPTES, FIGS. 5F & 11E
# Description: (§2) Apoptosis assays. Annexin V-binding assay was used to detect the induction of apoptosis. Cells were seeded in 48-well plates with single agent or combination therapy for various times, or with different concentrations for 48 hours. To quantify the percentages of cells undergoing apoptosis, Annexin V-FITC was used. Briefly, cells were washed twice with cold PBS and then suspended in binding buffer at a concentration of 1×10^6 cells/mL. After incubation, 100 μL of the solution was transferred to a 5-mL tube, to which 5 μL of Annexin V-FITC and 5 μL of PI are added. The tube was gently vortexed and incubated for 15 min at room temperature in dark. At the end of the incubation, 300 μL of binding buffer was added. Flow cytometric analysis was performed immediately with a Novocyte Flow Cytometer (ACEA Biosciences, San Diego, Calif., USA). Data were analyzed with NovoExpress (ACEA Biosciences, San Diego, Calif., USA) or FlowJo10 (Tree Star, Ashland, Oreg., USA).
# [3] = tested on: ibrutinib-resistant Maver-1 MCL cells; experiment: Apoptosis assay (Annexin-V/PI), Maver-1; type: cell-based, human; conditions: 72 hours, 20 nM IACS-010759 and/or 5 μM BPTES, FIGS. 5F & 11E
# Description: as §2
# [4] = tested on: Z-138 and Maver-1 MCL cell lines; experiment: Immunoblotting of cleaved Caspase-7 and PARP; type: cell-based, human; conditions: 20 nM IACS-010759 and/or 5 μM BPTES for 72 hours; FIG. 5G
# Description: Cells were cultured with single agent or combination therapy in the presence or absence of caspase inhibitors. Cells were harvested, washed twice with cold PBS, and lysed with lysis buffer (Cell Signaling, Danvers, Mass., USA). Cell lysates were kept on ice for 30 min and centrifuged at 13,000 g for 10 min at 4° C. For the detection of cytosolic cytochrome c, the Cytosol Fractionation Kit (BioVision, Milpitas, Calif., USA) was utilized to acquire cytosolic fractions according to the manufacturer's instructions. Supernatants were collected, and the protein content of each fraction was determined using a Bio-Rad Bradford assay (Bio-Rad, Hercules, Calif., USA). Samples were boiled in loading buffer and separated by 10% SDS-PAGE. After electrophoresis, the proteins were transferred onto a nitrocellulose membrane (Bio-Rad), which was incubated with blocking solution (5% nonfat dry milk in PBS containing 0.05% Tween-20) for 2 h and immunoblotted with SLC16A1 (Novus, St. Louis, Mo., USA), SLC1A5, BTK, and p16INK4a, and GAPDH (Cell Signaling, Danvers, Mass., USA) antibodies. The membrane was finally visualized by incubating the membrane with a chemiluminescence Western blot kit (Pierce Biotechnology, Rockford, Ill., USA).
# [5] = tested on: ibrutinib-resistant MCL cell lines, Z-138 and Maver-1; experiment: Mitochondria respiration (OCR, Seahorse), ibrutinib-resistant MCL cell lines; type: cell-based, human; conditions: 20 nM for 1 h, FIG. 5B
# Description: (§3) The oxygen consumption rate (OCR) was measured using a Seahorse XF-96 Metabolic Flux Analyzer (Seahorse Bioscience, North Billerica, Mass., USA). Briefly, MCL cells were treated with/without IACS-010759 (20 nM) for 1 h. On the day of analysis, 2-4×10^5 MCL cells/well were adhered to XF 96-well cell culture microplates (Seahorse Biosciences) pre-coated with Cell-Talc (BD Biosciences), by centrifugation at 1,000×g, without brakes for 5 min, then changed to mitochondria stress medium supplemented with 25 mM glucose, 2 mM sodium pyruvate, and 2 mM glutamine (pH 7.4), followed by incubation at 37° C. in a non-CO2 incubator for 1 h. […], FCCP (2 μM), and Rotenone/Antimycin A (0.5 μM), were loaded into drug delivery ports and injected sequentially at the indicated time points. After each injection, 4 time points were recorded with approximately 35 min between each injection. […] over time was normalized to protein content measured by sulforhodamine B (SRB) staining and plotted using Graph-Pad Prism.
# [6] = tested on: ibrutinib-resistant MCL cell lines (Maver-1 and Z-138) versus ibrutinib-sensitive (JeKo-1 and Mino); experiment: Glutamine uptake in MCL cell lines; type: cell-based, human; conditions: 20 nM for 24 hours; resistant compared with sensitive cells; FIG. 11D
# Description: (§4) MCL cell lines were seeded at 1-2×10^6 cells/well in triplicate in six-well plates and incubated overnight. Next, the media were replaced with 3 mL complete RPMI-1640 medium with or without inhibitors. […] and analyzed for their glucose, glutamine and lactate content using the Glucose, Glutamine and Lactate Colorimetric Assay Kits (BioVision), respectively, according to the manufacturer's instructions. Glucose or glutamine consumption was extrapolated by subtracting the measured glucose concentrations in the media from the initial concentrations (11.1 mM glucose; 2 mM glutamine). Intracellular ATP contents from above treated cells was determined using ATP Colorimetric Assay Kit (Biovision) as outlined in the manufacturer's protocol. […]
# [7] = tested on: ibrutinib-resistant MCL cell lines (Z-138 and Maver-1); experiment: Cell growth assay, ibrutinib-resistant MCL cell lines; type: cell-based, human
# Description: (§5) Cells were seeded in triplicate in a 96-well plate with 2×10^5 cells per well and treated with indicated dose of single agent or two compound combination for 24-72 hours. In the last 30 min, 50 μL of CellTiter 96 Aqueous One Solution Reagent were added to the culture wells and incubated at 37° C. in 5% CO2. Light absorbance of formazan was measured at 495 nm on a universal microplate reader equipped with KC4 software (Biotek Instruments, Winooski, Vt., USA).
# [8] = tested on: ibrutinib-sensitive MCL cell lines; experiment: ROS levels by flow cytometry, ibrutinib-sensitive MCL cell lines; type: cell-based, human; conditions: FIG. 5E
# Description: as §1, with “USA).” for “USA). To measure ROS levels, treated cells were harvested, stained with 0.5 mM CM-H2DCF-DA (C6827, Molecular Probes, Invitrogen) in PBS for 30 min at 37° C., washed twice with PBS, and analyzed in a flow cytometer (FACS Caliber, BD Biosciences) by recording the green fluorescence of oxidized DCF. The mean fluorescence of 10,000 analyzed cells (corrected for auto fluorescence) was taken as a readout for the intracellular ROS load.”
# To measure ROS levels, treated cells were harvested, stained with […] CM-H2DCF-DA (C6827, Molecular Probes, Invitrogen) in PBS for 30 min at 37° C., washed twice with PBS, and analyzed in a flow cytometer (FACS Caliber, BD Biosciences) by recording the green fluorescence of oxidized DCF. The mean fluorescence of 10,000 analyzed cells (corrected for auto fluorescence) was taken as a readout for the intracellular ROS load.
# [9] = tested on: ETC complex I; experiment: ETC complex I activity in ibrutinib-resistant MCL cell lines; type: cell-based, human; conditions: Z-138 and Maver-1; 20 nM, 24 hours; FIGS. 11A & 11B
# [10] = tested on: ibrutinib-resistant (Maver-1 and Z-138) MCL cell lines; experiment: Intracellular ATP, ibrutinib-resistant MCL cell lines; type: cell-based, human; conditions: 20 nM for 24 hours; 0 nM vs 20 nM p<0.0001; FIG. 11C
# Description: as §4
# [11] = tested on: ibrutinib-sensitive MCL cell line, Mino; experiment: Mitochondria respiration (OCR, Seahorse), ibrutinib-sensitive Mino; type: cell-based, human; conditions: 20 nM for 1 h, vs control, p=0.0832, FIG. 5B
# Description: as §3
# [12] = tested on: ibrutinib-resistant high-grade B-cell lymphoma PDX
# [13] = tested on: ibrutinib-sensitive MCL cell lines (Mino and JeKo-1); experiment: Cell growth assay, ibrutinib-sensitive MCL cell lines; type: cell-based, human; conditions: 72-hour incubation, FIG. 5A
# Description: as §5
# [14] = tested on: ibrutinib-resistant Z-138 and Maver-1 cell lines; experiment: Mitochondria membrane potential (TMRE), ibrutinib-resistant MCL cell lines; type: cell-based, human; conditions: 20 nM IACS-010759 and/or 5 μM BPTES for 24 hours; FIGS. 5C & 5D
# Description: Mitochondria membrane potential, mitochondria mass, ROS, and apoptosis analysis. MCL cells were seeded and cultured overnight before treatment to reach log phase. Respective cell lines were plated at 2×10^6 cells/well in 6-well plates in phenol-red and pyruvate-free DMEM assay medium containing 5 mM glucose (Sigma), 2 mM GlutaMAX (Gibco, ThermoFisher Scientific), and 5% dialyzed FCS (Gibco). Vehicle, IACS-0107059 (20 nM), or (1-5 μM) BPTES was added and replenished every day until the indicated time points. ROS and mitochondria membrane potential were evaluated 24 hours after treatment. To determine mitochondria membrane potential (Δψm), treated cells were loaded with MitoStatus tetramethylrhodamine, ethyl ester (TMRE) (BD Biosciences) at 37° C. for 15 min and washed with PBS twice to remove residual TMRE. TMRE dye fluorescence retained in the cells was detected by flow cytometry with excitation and emission of 548/574 nm. Data were analyzed with NovoExpress (ACEA Biosciences, San Diego, Calif., USA) or FlowJo10 (Tree Star, Ashland, Oreg., USA).
# [15] = tested on: ibrutinib-resistant MCL PDX
# Description: Histopathological analysis. Excised tissues from patients and PDX mice were fixed in 10% formalin solution, processed by standard methods, embedded in paraffin, sectioned at 5 μm, and stained with H&E. For immunohistochemical (IHC) evaluation, the tissues are stained with an antibody against human anti-CD20 (Dako, Glostrup, Denmark), counterstained with Harris hematoxylin and examined by standard light microscopy. Samples were analyzed using an Olympus BX51TF microscope equipped with UPlan FL 40×/0.75 and 20×/0.50 objective lenses (Olympus, Melville, N.Y., USA).
compound,measurement,setting,value
"NOCC(=O)O [AOA, aminooxyacetate]",ROS and energy stress,"[1]; 0.5 mM AOA for 24 hours, compared with the sensitive cell lines, FIG. 10B",marked induction of reactive oxygen species (ROS) and energy stress
"O=C(Cc1ccccc1)Nc1nnc(CCSCCc2nnc(NC(=O)Cc3ccccc3)s2)s1 [BPTES, bis-2-(5-phenylacetamido-1,3,4-thiadiazol-2-yl)ethyl sulfide]",apoptosis,[2],44%
same,apoptosis,[3],25%
same,caspase 7 activation and PARP cleavage,[4],induced caspase 7 activation and PARP cleavage
Cc1nc(-c2nc(-c3ccc(OC(F)(F)F)cc3)no2)nn1Cc1cccc(N2CCC(S(C)(=O)=O)CC2)c1 [IACS-010759],OCR (oxygen consumption rate),[5]; vs DMSO-treated control,reduced the OCR
same,average reduction of OCR compared with the control,"[5]; mixed effects regression model, p<0.0001",358.9406 (95% CI: 321.1402-396.741)
same,glutamine uptake inhibition,[6],greater glutamine uptake inhibition
same,inhibition of proliferation (cell growth inhibition),"[7]; Z-138 and Maver-1, 72-hour incubation, FIG. 5A",dose-dependent manner at nanomolar concentrations
same,difference in IC50 values between the resistant and sensitive cell lines,"[7]; cell growth, 72 h, resistant (Z-138, Maver-1) vs sensitive (Mino, JeKo-1)",approximately 10 fold
same,ROS production,"[1]; Maver-1 and Z-138, IACS-010759 25 nM (text; FIG. 5E legend 20 nM) and/or 5 μM BPTES, 24 hours",induced ROS production
same,ROS production,[8],not in the -sensitive cell lines
same,ETC complex I activity,[9],reduced
same,apoptosis,[2],42%
same,ATP production (intracellular ATP levels),[10],decreased
same,OCR (oxygen consumption rate),[11],little effect; also recorded: No significant difference
same,body weight vs vehicle,"[12]; 10 mg/kg oral gavage 5 consecutive days/week, p=0.1964, FIG. 12C",not significantly different
same,tumor growth by tumor volume,"[12]; IACS-010759 10 mg/kg 5 days/week (p<0.0001 vs vehicle), ibrutinib 50 mg/kg daily (p=0.7227), oral gavage, FIG. 12A",significantly inhibited tumor growth
same,tumor growth by human (32M levels),"[12]; IACS-010759 10 mg/kg 5 days/week (p=0.0003 vs vehicle), ibrutinib 50 mg/kg daily (p=0.6911), FIG. 12B",significantly inhibited tumor growth
same,survival benefit,"[12]; compared with vehicle- and ibrutinib-treated mice, FIG. 12D",greater than 20 days
same,survival of the ibrutinib-resistant PDX mice,"[12]; n=5, vs vehicle p=0.0035, vs ibrutinib p=0.0035, FIG. 12D",significantly prolonged the survival
same,apoptosis,[3],23%
same,inhibition of proliferation (cell growth inhibition),[13],very little effect
same,caspase 7 activation and PARP cleavage,[4],induced caspase 7 activation and PARP cleavage
same,"mitochondrial potential (Δψm, TMRE)",[14],decreased
same,toxicities,[15]; 10 mg/kg oral gavage 5 consecutive days/week,No apparent toxicities
same,body weight vs vehicle control,"[15]; 10 mg/kg oral gavage 5 consecutive days/week, p=0.3304, FIG. 6C",not significantly different
same,tumor growth by tumor volume,"[15]; 10 mg/kg oral gavage 5 consecutive days/week, vs vehicle, n=5, p<0.0001, FIG. 6A",completely prevented tumor growth
same,tumor growth by human β2M levels,"[15]; 10 mg/kg oral gavage 5 consecutive days/week, vs vehicle, n=5, p<0.0001, FIG. 6B",completely prevented tumor growth
same,H&E and anti-CD20 staining of dissected tissue post-treatment,"[15]; end of treatment, a small number of CD20+ cells remained, FIG. 6D",repopulation of the tumor area with fatty deposits
